According to publication PMC10177380 (Cancers, 2023):
“And” between values parts separate entries of the source, which are not always exact repeats. Identical values can stand only once.

Experiments:
[1] = system: SJG2 glioblastoma; experiment: MTT growth inhibition, 72 h, SJG2; assay type: cell-based
[2] = system: U87 glioblastoma; experiment: MTT growth inhibition, 72 h, U87; assay type: cell-based
[3] = Reduction with ascorbic acid (AsA) in PBS followed by 1H-NMR and 1D-195Pt-NMR; assay type: physicochemical; settings: estimated 100% reduction, PBS in D2O, 37 °C
Method: The reduction behaviour of 1–6 was probed via ^1H-NMR and 1D-^195Pt-NMR spectroscopy, as previously described (see Supplementary Materials).
The reduction behaviour of 1–6 was monitored by ^1H-NMR and 1D-^195Pt-NMR spectroscopy using previously established methods. Prior to the reduction measurements, each metal complex was dissolved with PBS in D2O only.
Based on the initial 1D-^195Pt-NMR spectra acquired (Figures S62 and S63), the structural integrity of the complexes was retained, and no signs of reduction were observed, thus also confirming that the PBS had no effect on the complexes. Subsequently, AsA was added in each solution containing the metal complex, PBS and D2O. Then, sequential ^1H-NMR experiments were undertaken for 1 h, followed by final 1D-^195Pt-NMR experiments measured within the regions of 400 and −2800 ppm (Figures S64–S75). The approximate time points for 1–6 at which an estimated 50 and 100% reduction had occurred, in the presence of AsA, as represented by T50% and T100%, are summarised in Table 8.
A sequence of 1H-NMR experiments was carried out for 1 h at 37 °C, followed by 1D-195Pt-NMR within the regions of –2800 and 400 ppm. An amount of 10 mM PBS (~7.4 pH) was transferred to a vial and reduced to dryness through rotary evaporation. AsA (~1 mg) was combined with the metal complex (~5 mg) and transferred to the vial containing the dried PBS. 600 μL of D2O was then added to the vial to dissolve the complex, AsA and the PBS together. Each reaction was followed at 37 °C until the complete reduction […]
The cell lines tested were: HT29 colon, U87 glioblastoma, MCF-7 breast, A2780 ovarian, H460 lung, A431 skin, Du145 prostate, BE2-C neuroblastoma, SJ-G2 glioblastoma, MIA pancreas, ADDP ovarian variant, and the non-tumour derived MCF10A breast line. In […]
agents were prepared in DMSO (30 mM stock solutions) and stored at −20 °C until use.
All cell lines were cultured in a humidified atmosphere 5% carbon dioxide at 37 °C. The cancer cell lines were maintained in Dulbecco’s modified Eagle’s medium (DMEM) (Trace Biosciences, Sydney, NSW, Australia) supplemented with 10% foetal bovine serum, 10 mM sodium bicarbonate penicillin (100 IU mL−1), streptomycin (100 μg mL−1) and glutamine (4 mM). The non-cancer MCF10A cell line was cultured in DMEM:F12 (1:1) cell culture media, 5% heat inactivated horse serum, supplemented with penicillin (50 IU mL−1), streptomycin (50 μg mL−1), 20 mM 4-(2-hydroxyethyl)-1-piperazineethanesulfonic acid (HEPES), L-glutamine (2 mM), epidermal growth factor (20 ng mL−1), hydrocortisone (500 ng mL−1), cholera toxin (100 ng mL−1) and insulin (10 μg mL−1). Cytotoxicity was determined by plating cells in duplicate in […] medium at a density of 2500 – 4000 cells per well in 96 well plates. On day 0 (24 h after plating) when the cells were in logarithmic growth, 100 μL of medium with or without the test agent

[4] = system: Du145 prostate; experiment: MTT growth inhibition, 72 h, Du145; assay type: cell-based; settings: for GI50: Du145, MTT, 72 h
[5] = system: HT29 colon cells; experiment: ROS production, DCFDA/H2DCFDA cellular ROS assay; assay type: cell-based, human; settings: treatment at GI50 concentration (TBHP positive control 20 μM)
Method: To determine the presence of ROS in treated cells, a DCFDA/H2DCFDA-cellular ROS Assay Kit (Abcam, Cambridge, MA, USA) was utilised, as previously reported. The ROS potential of platinum(II) precursors and platinum(IV) scaffolds, which were determined using the same method, were also presented in this study for comparison.
Additionally, the ROS potential of the platinum(II) precursors and platinum(IV) scaffolds was determined previously and was presented here to allow for comparison (Table 10 and Figure 13). […] Treatment with the complexes and ligands was completed at each specific GI50 concentration. […]
dimethylthiazol-2-yl]-2,5-diphenyltetrazolium bromide) assay and absorbance was read at 540 nm. An eight-point dose response curve was produced from which the GI50 value was calculated, representing the drug concentration at which cell growth was inhibited by 50% based on the difference between the optical density values on day 0 and those at the end of drug exposure.
4. Reactive Oxygen Species (ROS) Potential
A total of 25,000 cells/mL of HT29 cells in DMEM were seeded in 96-well plates. Cells were washed with 1X kit buffer, and then stained with 25 μM 2’,7’-dichlorofluorescein diacetate (DCFH-DA) and incubated for 45 min. DCFH-DA was then removed, and cells were then re-washed with 1X kit buffer, after which phenol red free media was added.
Cells were then treated with a GI50 drug concentration for each complex. The plates were directly scanned to measure fluorescence (relative fluorescence units (RFU)) at different time points using the Glo-Max®-Multimode microplate reader (Promega Corporation, Alexandra, VIC, Australia) at an excitation/emission of 485/535 nm. […]

[6] = system: ADDP ovarian variant (cisplatin-resistant A2780 clone); experiment: MTT growth inhibition, 72 h, ADDP; assay type: cell-based; settings: for GI50: ADDP, MTT, 72 h
[7] = system: MCF7 breast; experiment: MTT growth inhibition, 72 h, MCF7; assay type: cell-based; settings: for GI50: MCF7, MTT, 72 h
[8] = system: multiple cell lines; experiment: MTT growth inhibition, over all cell lines tested; assay type: cell-based; settings: for GI50: mean over all cell lines tested, read-out: Mean GI50 Values
[9] = system: A431 skin; experiment: MTT growth inhibition, 72 h, A431; assay type: cell-based
[10] = system: A2780 ovarian; experiment: MTT growth inhibition, 72 h, A2780; assay type: cell-based
[11] = system: BE2C neuroblastoma; experiment: MTT growth inhibition, 72 h, BE2C; assay type: cell-based; settings: for GI50: BE2C, MTT, 72 h
[12] = system: HT29 colon; experiment: MTT growth inhibition, 72 h, HT29; assay type: cell-based, human
[13] = system: H460 lung; experiment: MTT growth inhibition, 72 h, H460; assay type: cell-based; settings: H460, MTT, 72 h
[14] = system: MIA pancreas; experiment: MTT growth inhibition, 72 h, MIA; assay type: cell-based
[15] = system: non-tumour derived MCF10A breast line; experiment: MTT growth inhibition, 72 h, MCF10A; assay type: cell-based

Row | Compound | GI50 [1] [nM] | GI50 [2] [nM] | Reduction Times T100% [3] [min] | GI50 [4] [nM] | ROS Production ([5]; HT29, 24 h) [RFU] | ROS Production ([5]; HT29, 48 h) [RFU] | ROS Production ([5]; HT29, 72 h) | GI50 [6] [nM] | GI50 [7] [nM] | GI50 [8] [nM] | GI50 [9] [nM] | GI50 [10] [nM] | GI50 [11] [nM] | GI50 [12] [nM] | GI50 [13] [nM] | GI50 [14] [nM] | GI50 [15] [nM] | further results
1 | COc1ccc2c(c1)c(CC(=O)OCC(=O)[O][Pt-2]13([OH])([NH2+][C@H]4CCCC[C@@H]4[NH2+]1)[n+]1cccc4cc(C)c5ccc[n+]3c5c41)c(C)n2C(=O)c1ccc(Cl)cc1 [Complex 5, [Pt^IV(5-Mephen)(SS-DACH)(ACE)(OH)]^2+] | 200 ± 21 | 140 ± 8 | 10 to 15 | 1.3 ± 0.4 | 313 ± 11 | 305 ± 10 | 192 RFU and 192 ± 7 RFU | 9.3 ± 2 | 39 ± 18 | 70 ± 15 | 60 ± 45 | 30 ± 12 | 250 ± 33 | 13 ± 8 | 43 ± 8 | 29 ± 14 | 20 ± 5 | fold more potent than carboplatin [4]: 11,540 fold; fold more potent than cisplatin [4]: at least 920 fold; fold more potent than its platinum(II) precursor [4]: 17 fold; fold more potent than oxaliplatin [4]: 2230 fold; fold more potent than cisplatin [6]: 3000 fold; fold decrease of GI50 relative to the platinum(IV) scaffold [11]: 5.6 fold
2 | COc1ccc2c(c1)c(CC(=O)OCC(=O)[O][Pt-2]13([OH])([NH2+][C@H]4CCCC[C@@H]4[NH2+]1)[n+]1cccc4ccc5ccc[n+]3c5c41)c(C)n2C(=O)c1ccc(Cl)cc1 [Complex 4, [Pt^IV(phen)(SS-DACH)(ACE)(OH)]^2+] | 1450 ± 104 | 1720 ± 140 | 10 to 15 | 150 ± 40 | 303 ± 8 | 298 ± 17 | 168 RFU and 168 ± 15 RFU | 330 ± 27 | 840 ± 390 | 735 ± 58 | 930 ± 490 | 350 ± 47 | 1300 ± 150 | 290 ± 30 | 610 ± 80 | 490 ± 36 | 360 ± 29 | fold decrease of GI50 relative to the platinum(IV) scaffold [7]: 19 fold; fold difference of mean GI50 compared to platinum(II) precursor [8]: 1- to 2 fold
